Patent publication US20240100170A1, “CYCLIC-AMP RESPONSE ELEMENT BINDING PROTEIN (CBP) AND/OR ADENOVIRAL E1A BINDING PROTEIN OF 300 KDA (P300) DEGRADATION COMPOUNDS AND METHODS OF USE” (CULLGEN (SHANGHAI), INC., priority 2020, published 2024)

System: LNCaP prostate cancer cell
Assay: LNCaP cell viability (CellTiter-Glo)
Assay type: cell-based
Details: 3 days, 3-fold serial dilution from 10 μM; FIG. 4
Procedure: LNCaP cells seeded in 96-well plates were treated with 10 μM GNE-781 or selected bivalent compounds, i.e. P-001, P-002, and P-019, following a 12-point 3-fold serial dilution. Three days after treatment, cell viability was determined using the CellTiter-Glo kit (Promega) following manufacturer's instructions. Cell viability was normalized to the mean values of 3 replicates of untreated cells. Dose-dependent response was analyzed following the least-squares non-linear regression method using the GraphPad Prism 5.0 software.
LNCaP (clone FGC), 22RV1 and other cells were cultured at 37° C. with 5% CO 2 in RPMI 1640 Medium supplemented with 10% fetal bovine serum. Cells were authenticated using the short tandem repeat (STR) assays. Mycoplasma test results were negative.
Cells were seeded at a density of 5000 cells per well in 96-well assay plates and treated with test compounds following a 12-point 3-fold serial dilution. Three days later, cell viability was determined using the CellTiter-Glo assay kit according to the manufactureR's instructions. The dose-response curves were determined and IC50 values were calculated using the GraphPad Prism software following a nonlinear regression (least squares fit) method.

Compound | viability of LNCaP cells
CNC(=O)N1CCc2c(c(N3CCCc4cc(-c5cnn(CC(=O)NCCCCCNc6ccc7c(c6)C(=O)N(C6CCC(=O)NC6=O)C7=O)c5)c(C(F)F)cc43)nn2C2CCOCC2)C1 (stereo not drawn) [P-019, 3-(7-(difluoromethyl)-6-(1-(2-((5-((2-(2,6-dioxopiperidin-3-yl)-1,3-dioxoisoindolin-5-yl)amino)pentyl)amino)-2-oxoethyl)-1H-pyrazol-4-yl)-3,4-dihydroquinolin-1(2H)-yl)-N-methyl-1-(tetrahydro-2H-pyran-4-yl)-1,4,6,7-tetrahydro-5H-pyrazolo[4,3-c]pyridine-5-carboxamide] | dose-dependently suppressed viability of LNCaP cells
CNC(=O)N1CCc2c(c(N3CCCc4cc(-c5cnn(C)c5)c(C(F)F)cc43)nn2C2CCN(C(=O)CNc3ccc4c(c3)C(=O)N(C3CCC(=O)NC3=O)C4=O)CC2)C1 (stereo not drawn) [P-001, 3-(7-(difluoromethyl)-6-(1-methyl-1H-pyrazol-4-yl)-3,4-dihydroquinolin-1(2H)-yl)-1-(1-((2-(2,6-dioxopiperidin-3-yl)-1,3-dioxoisoindolin-5-yl)glycyl)piperidin-4-yl)-N-methyl-1,4,6,7-tetrahydro-5H-pyrazolo[4,3-c]pyridine-5-carboxamide] | dose-dependently suppressed viability of LNCaP cells
CNC(=O)N1CCc2c(c(N3CCCc4cc(-c5cnn(C)c5)c(C(F)F)cc43)nn2C2CCN(C(=O)CCNc3ccc4c(c3)C(=O)N(C3CCC(=O)NC3=O)C4=O)CC2)C1 (stereo not drawn) [P-002, 3-(7-(difluoromethyl)-6-(1-methyl-1H-pyrazol-4-yl)-3,4-dihydroquinolin-1(2H)-yl)-1-(1-(3-((2-(2,6-dioxopiperidin-3-yl)-1,3-dioxoisoindolin-5-yl)amino)propanoyl)piperidin-4-yl)-N-methyl-1,4,6,7-tetrahydro-5H-pyrazolo[4,3-c]pyridine-5-carboxamide] | dose-dependently suppressed viability of LNCaP cells

Same assay, conditions: Homo sapiens, 72 h; LNCaP cell viability, 3 days, CellTiter-Glo; Table 2

IC50 | Compound
234 nM | CNC(=O)N1CCc2c(c(N3CCCc4cc(-c5cnn(CC(=O)NCCCCCCCCCC(=O)NC(C(=O)N6C[C@H](O)CC6C(=O)NCc6ccc(-c7scnc7C)cc6)C(C)(C)C)c5)c(C(F)F)cc43)nn2C2CCOCC2)C1 (stereo in doubt) [P-049, 3-(7-(difluoromethyl)-6-(1-(2-((10-(((S)-1-((2S,4R)-4-hydroxy-2-((4-(4-methylthiazol-5-yl)benzyl)carbamoyl)pyrrolidin-1-yl)-3,3-dimethyl-1-oxobutan-2-yl)amino)-10-oxodecyl)amino)-2-oxoethyl)-1H-pyrazol-4-yl)-3,4-dihydroquinolin-1(2H)-yl)-N-methyl-1-(tetrahydro-2H-pyran-4-yl)-1,4,6,7-tetrahydro-5H-pyrazolo[4,3-c]pyridine-5-carboxamide]
111 nM | CNC(=O)N1CCc2c(c(N3CCCc4cc(-c5cnn(CC(=O)NCCCCCCCCCCC(=O)N[C@H](C(=O)N6CC(O)C[C@H]6C(=O)NCc6ccc(-c7scnc7C)cc6)C(C)(C)C)c5)c(C(F)F)cc43)nn2C2CCOCC2)C1 (stereo in doubt) [P-050, 3-(7-(difluoromethyl)-6-(1-(2-((11-(((S)-1-((2S,4R)-4-hydroxy-2-((4-(4-methylthiazol-5-yl)benzyl)carbamoyl)pyrrolidin-1-yl)-3,3-dimethyl-1-oxobutan-2-yl)amino)-11-oxoundecyl)amino)-2-oxoethyl)-1H-pyrazol-4-yl)-3,4-dihydroquinolin-1(2H)-yl)-N-methyl-1-(tetrahydro-2H-pyran-4-yl)-1,4,6,7-tetrahydro-5H-pyrazolo[4,3-c]pyridine-5-carboxamide]

Same assay, conditions: Homo sapiens, 72 h; LNCaP cell viability, 3 days, CellTiter-Glo; Table 3

IC50 | Compound
> 10000 nM | CNC(=O)N1CCc2c(c(N3CCCc4cc(-c5cnn(CC(=O)NCCOCCOCCOCCOCCOCCC(=O)N[C@H](C(=O)N6C[C@H](O)C[C@H]6C(=O)NCc6ccc(-c7scnc7C)cc6)C(C)(C)C)c5)c(C(F)F)cc43)nn2C2CCOCC2)C1 [P-082]
> 10000 nM | CNC(=O)N1CCc2c(c(N3CCCc4cc(-c5cnn(CC(=O)NCCOCCOCC(=O)N[C@H](C(=O)N6C[C@H](O)C[C@H]6C(=O)NCc6ccc(-c7scnc7C)cc6)C(C)(C)C)c5)c(C(F)F)cc43)nn2C2CCOCC2)C1 [P-083, 3-(7-(difluoromethyl)-6-(1-((S)-13-((2S,4R)-4-hydroxy-2-((4-(4-methylthiazol-5-yl)benzyl)carbamoyl)pyrrolidine-1-carbonyl)-14,14-dimethyl-2,11-dioxo-6,9-dioxa-3,12-diazapentadecyl)-1H-pyrazol-4-yl)-3,4-dihydroquinolin-1(2H)-yl)-N-methyl-1-(tetrahydro-2H-pyran-4-yl)-1,4,6,7-tetrahydro-5H-pyrazolo[4,3-c]pyridine-5-carboxamide]
> 1000 nM | CC(=O)N1CCc2c(c(N3CCCc4cc(-c5cnn(C)c5)c(C(F)F)cc43)nn2C2CCN(CCCNC(=O)CNc3cccc4c3C(=O)N(C3CCC(=O)NC3=O)C4=O)CC2)C1 (stereo not drawn) [P-124, N-(3-(4-(5-acetyl-3-(7-(difluoromethyl)-6-(1-methyl-1H-pyrazol-4-yl)-3,4-dihydroquinolin-1(2H)-yl)-4,5,6,7-tetrahydro-1H-pyrazolo[4,3-c]pyridin-1-yl)piperidin-1-yl)propyl)-2-((2-(2,6-dioxopiperidin-3-yl)-1,3-dioxoisoindolin-4-yl)amino)acetamide]

Same assay, conditions: Homo sapiens, 72 h; LNCaP cell viability, 3 days, CellTiter-Glo; Table 4

IC50 | Compound
> 500 nM | CC(=O)N1CCc2c(c(N3CCCc4cc(-c5cnn(C)c5)c(C(F)F)cc43)nn2C2CCN(C(=O)CCCN3CCN(CC(=O)Nc4cccc(NC5CCC(=O)NC5=O)c4)CC3)CC2)C1 (stereo not drawn) [P-259, 2-(4-(4-(4-(5-acetyl-3-(7-(difluoromethyl)-6-(1-methyl-1H-pyrazol-4-yl)-3,4-dihydroquinolin-1(2H)-yl)-4,5,6,7-tetrahydro-1H-pyrazolo[4,3-c]pyridin-1-yl)piperidin-1-yl)-4-oxobutyl)piperazin-1-yl)-N-(3-((2,6-dioxopiperidin-3-yl)amino)phenyl)acetamide]
325 nM | CC(=O)N1CCc2c(c(N3CCCc4cc(-c5cnn(C)c5)c(C(F)F)cc43)nn2C2CCN(C(=O)CCCN3CCC(COc4cccc5c4n(C)c(=O)n5C4CCC(=O)NC4=O)CC3)CC2)C1 (stereo not drawn) [P-210, 3-(4-((1-(4-(4-(5-Acetyl-3-(7-(difluoromethyl)-6-(1-methyl-1H-pyrazol-4-yl)-3,4-dihydroquinolin-1(2H)-yl)-4,5,6,7-tetrahydro-1H-pyrazolo[4,3-c]pyridin-1-yl)piperidin-1-yl)-4-oxobutyl)piperidin-4-yl)methoxy)-3-methyl-2-oxo-2,3-dihydro-1H-benzo[d]imidazol-1-yl)piperidine-2,6-dione]
> 500 nM | CC(=O)N1CCc2c(c(N3CCCc4cc(-c5cnn(C)c5)c(C(F)F)cc43)nn2C2CCN(C(=O)CCN3CCC(COc4cccc5c4n(C)c(=O)n5C4CCC(=O)NC4=O)CC3)CC2)C1 (stereo not drawn) [P-209, 3-(4-((1-(3-(4-(5-acetyl-3-(7-(difluoromethyl)-6-(1-methyl-1H-pyrazol-4-yl)-3,4-dihydroquinolin-1(2H)-yl)-4,5,6,7-tetrahydro-1H-pyrazolo[4,3-c]pyridin-1-yl)piperidin-1-yl)-3-oxopropyl)piperidin-4-yl)methoxy)-3-methyl-2-oxo-2,3-dihydro-1H-benzo[d]imidazol-1-yl)piperidine-2,6-dione]
> 500 nM | CC(=O)N1CCc2c(c(N3CCCc4cc(-c5cnn(C)c5)c(C(F)F)cc43)nn2C2CCN(C(=O)CCCCCCCC(=O)Nc3cccc(NC4CCC(=O)NC4=O)c3)CC2)C1 (stereo not drawn) [P-263, 9-(4-(5-Acetyl-3-(7-(difluoromethyl)-6-(1-methyl-1H-pyrazol-4-yl)-3,4-dihydroquinolin-1(2H)-yl)-4,5,6,7-tetrahydro-1H-pyrazolo[4,3-c]pyridin-1-yl)piperidin-1-yl)-N-(3-((2,6-dioxopiperidin-3-yl)amino)phenyl)-9-oxononanamide]
> 500 nM | CC(=O)N1CCc2c(c(N3CCCc4cc(-c5cnn(C)c5)c(C(F)F)cc43)nn2C2CCN(C(=O)CCN3CCN(CC(=O)Nc4cccc(NC5CCC(=O)NC5=O)c4)CC3)CC2)C1 (stereo not drawn) [P-258, 2-(4-(3-(4-(5-acetyl-3-(7-(difluoromethyl)-6-(1-methyl-1H-pyrazol-4-yl)-3,4-dihydroquinolin-1(2H)-yl)-4,5,6,7-tetrahydro-1H-pyrazolo[4,3-c]pyridin-1-yl)piperidin-1-yl)-3-oxopropyl)piperazin-1-yl)-N-(3-((2,6-dioxopiperidin-3-yl)amino)phenyl)acetamide]
> 500 nM | CC(=O)N1CCc2c(c(N3CCCc4cc(-c5cnn(C)c5)c(C(F)F)cc43)nn2C2CCN(C(=O)CC3CCN(CC(=O)Nc4cccc(NC5CCC(=O)NC5=O)c4)CC3)CC2)C1 (stereo not drawn) [P-260, 2-(4-(2-(4-(5-acetyl-3-(7-(difluoromethyl)-6-(1-methyl-1H-pyrazol-4-yl)-3,4-dihydroquinolin-1(2H)-yl)-4,5,6,7-tetrahydro-1H-pyrazolo[4,3-c]pyridin-1-yl)piperidin-1-yl)-2-oxoethyl)piperidin-1-yl)-N-(3-((2,6-dioxopiperidin-3-yl)amino)phenyl)acetamide]

Compound | IC50
CC(=O)N1CCc2c(c(N3CCCc4cc(-c5cnn(C)c5)c(C(F)F)cc43)nn2C2CCN(CCN3CCOC(CNc4cccc5c4CN(C4CCC(=O)NC4=O)C5=O)C3)CC2)C1 (stereo not drawn) [P-199, 3-(4-(((4-(2-(4-(5-acetyl-3-(7-(difluoromethyl)-6-(1-methyl-1H-pyrazol-4-yl)-3,4-dihydroquinolin-1(2H)-yl)-4,5,6,7-tetrahydro-1H-pyrazolo[4,3-c]pyridin-1-yl)piperidin-1-yl)ethyl)morpholin-2-yl)methyl)amino)-1-oxoisoindolin-2-yl)piperidine-2,6-dione] | > 500 nM
